In patent publication US12703729B2, “GIP agonist compounds and methods” (Zealand Pharma A/S, priority 2014, dated 2026) one finds EC50 data, which are given here for 6 compounds.

Starred links: 1 amine or outer side, 2 acyl side, 3 side chain; linkers in the order of their positions; H or OH if unused. Non-standard residues stand in square brackets, D forms with d. Residues, ends and D or L forms follow the SMILES beside them. Groups on a side chain read outwards from the residue. *: point of attachment. X1 = O=C(O)CCCCCCCCCCCCCCCCCCC(=O)N1CCN(CC(=O)*)CC1; C20 diacid = O=C(O)CCCCCCCCCCCCCCCCCCC(=O)*; γGlu = O=C(O)[C@H](CCC(=O)[*:2])N[*:1]; AEEA = NCCOCCOCC(=O)O; Aib = CC(C)(N)C(=O)O Some results are limits rather than exact numbers.

One assay deals with T1, human GIP R (Homo sapiens, UniProt P48546).
T1 sequence (P48546 22-466): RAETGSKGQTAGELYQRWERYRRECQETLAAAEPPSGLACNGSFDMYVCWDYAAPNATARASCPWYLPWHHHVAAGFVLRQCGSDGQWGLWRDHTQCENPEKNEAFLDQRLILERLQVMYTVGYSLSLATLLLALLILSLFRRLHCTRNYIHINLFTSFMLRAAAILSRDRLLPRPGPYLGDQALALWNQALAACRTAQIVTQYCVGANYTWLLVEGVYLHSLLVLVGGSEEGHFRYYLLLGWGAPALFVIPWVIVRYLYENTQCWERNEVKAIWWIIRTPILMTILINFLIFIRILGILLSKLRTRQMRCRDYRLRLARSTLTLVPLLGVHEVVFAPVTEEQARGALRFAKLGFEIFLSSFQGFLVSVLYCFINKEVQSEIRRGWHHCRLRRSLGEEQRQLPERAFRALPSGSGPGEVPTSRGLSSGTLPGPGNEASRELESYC
In words: cell-based.

For assay [1], the target named is human GLP-1 receptor (GLP-1R) (Homo sapiens, UniProt P43220). Nature of the assay: Activity assay at human GLP-1 receptor, cAMP induction (AlphaScreen), Example 3. A general note: Bead proximity is the source of the signal in Alpha formats.
In assay [2] the target is T2, human GIP receptor (GIP R) (Homo sapiens, UniProt P48546).
T2 sequence (P48546 22-466): T1 sequence (P48546 22-466)
In words: Activity assay at human GIP receptor, cAMP induction (AlphaScreen), Example 3.

human GLP-1 receptor (GLP-1R), sequence (P43220 24-463): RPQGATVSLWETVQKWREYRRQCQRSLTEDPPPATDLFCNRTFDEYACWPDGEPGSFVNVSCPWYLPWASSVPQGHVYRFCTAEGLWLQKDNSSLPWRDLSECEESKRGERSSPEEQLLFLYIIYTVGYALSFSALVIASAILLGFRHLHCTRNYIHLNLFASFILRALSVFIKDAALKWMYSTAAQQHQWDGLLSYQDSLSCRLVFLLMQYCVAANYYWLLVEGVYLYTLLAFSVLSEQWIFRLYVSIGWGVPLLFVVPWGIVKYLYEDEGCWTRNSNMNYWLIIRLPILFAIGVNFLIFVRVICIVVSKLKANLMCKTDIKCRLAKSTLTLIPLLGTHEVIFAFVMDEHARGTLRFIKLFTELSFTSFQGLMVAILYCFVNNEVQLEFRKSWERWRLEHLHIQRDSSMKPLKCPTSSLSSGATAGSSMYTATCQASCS

With `CC[C@H](C)[C@H](NC(=O)[C@H](CO)NC(=O)[C@H](Cc1ccc(O)cc1)NC(=O)[C@H](CC(=O)O)NC(=O)[C@H](CO)NC(=O)[C@@H](NC(=O)[C@H](Cc1ccccc1)NC(=O)[C@@H](NC(=O)CNC(=O)[C@H](CCC(=O)O)NC(=O)C(C)(C)NC(=O)[C@@H](N)Cc1ccc(O)cc1)[C@@H](C)O)[C@@H](C)CC)C(=O)N[C@@H](CCC(=O)O)C(=O)N[C@@H](CC(C)C)C(=O)N[C@@H](CC(=O)O)C(=O)N[C@@H](CCCCN)C(=O)N[C@@H](CCCCNC(=O)COCCOCCNC(=O)COCCOCCNC(=O)CC[C@H](NC(=O)CCCCCCCCCCCCCCCCCCC(=O)O)C(=O)O)C(=O)N[C@@H](Cc1c[nH]cn1)C(=O)N[C@@H](CCC(N)=O)C(=O)N[C@@H](CCC(N)=O)C(=O)N[C@@H](CC(=O)O)C(=O)N[C@@H](Cc1ccccc1)C(=O)N[C@H](C(=O)N[C@@H](CC(N)=O)C(=O)N[C@@H](Cc1ccc(O)cc1)C(=O)N[C@@H](CC(C)C)C(=O)N[C@@H](CC(C)C)C(=O)N[C@@H](C)C(=O)N[C@@H](CCC(N)=O)C(=O)NCC(=O)N1CCC[C@H]1C(=O)N[C@@H](CO)C(=O)N[C@@H](CO)C(=O)NCC(=O)N[C@@H](C)C(=O)N1CCC[C@H]1C(=O)N1CCC[C@H]1C(=O)N1CCC[C@H]1C(=O)N[C@@H](CO)C(N)=O)C(C)C` [Compound 8] (H-Y[Aib]EGTFISDYSIELDKK([AEEA-AEEA-γGlu-C20 diacid])HQQDFVNYLLAQGPSSGAPPPS-NH2), the EC50 on human GIP R was 9 pM; in assay [1], above 10000 pM.
Turning to `CC[C@H](C)[C@H](NC(=O)[C@H](CO)NC(=O)[C@H](Cc1ccc(O)cc1)NC(=O)[C@H](CC(=O)O)NC(=O)[C@H](CO)NC(=O)[C@@H](NC(=O)[C@H](Cc1ccccc1)NC(=O)[C@@H](NC(=O)CNC(=O)[C@H](CCC(=O)O)NC(=O)C(C)(C)NC(=O)[C@@H](N)Cc1ccc(O)cc1)[C@@H](C)O)[C@@H](C)CC)C(=O)N[C@@H](CCC(=O)O)C(=O)N[C@@H](CC(C)C)C(=O)N[C@@H](CC(=O)O)C(=O)N[C@@H](CCCCN)C(=O)N[C@@H](CCCCNC(=O)COCCOCCNC(=O)COCCOCCNC(=O)CC[C@H](NC(=O)CCCCCCCCCCCCCCCCCCC(=O)O)C(=O)O)C(=O)N[C@@H](Cc1c[nH]cn1)C(=O)N[C@@H](CCC(N)=O)C(=O)N[C@@H](CCC(N)=O)C(=O)N[C@@H](CC(=O)O)C(=O)N[C@@H](Cc1ccccc1)C(=O)N[C@H](C(=O)N[C@@H](CC(N)=O)C(=O)N[C@@H](Cc1c[nH]c2ccccc12)C(=O)N[C@@H](CC(C)C)C(=O)N[C@@H](CC(C)C)C(=O)N[C@@H](C)C(=O)N[C@@H](CCC(N)=O)C(=O)NCC(=O)N1CCC[C@H]1C(=O)N[C@@H](CO)C(=O)N[C@@H](CO)C(=O)NCC(=O)N[C@@H](C)C(=O)N1CCC[C@H]1C(=O)N1CCC[C@H]1C(=O)N1CCC[C@H]1C(=O)N[C@@H](CO)C(N)=O)C(C)C` [Compound 9] (H-Y[Aib]EGTFISDYSIELDKK([AEEA-AEEA-γGlu-C20 diacid])HQQDFVNWLLAQGPSSGAPPPS-NH2), the EC50 on human GIP R is 8 pM; in assay [1], above 3000 pM; in assay [2], 9 pM.
For the compound `CC[C@H](C)[C@H](NC(=O)[C@H](CO)NC(=O)[C@H](Cc1ccc(O)cc1)NC(=O)[C@H](CC(=O)O)NC(=O)[C@H](CO)NC(=O)[C@@H](NC(=O)[C@H](Cc1ccccc1)NC(=O)[C@@H](NC(=O)CNC(=O)[C@H](CCC(=O)O)NC(=O)C(C)(C)NC(=O)[C@@H](N)Cc1ccc(O)cc1)[C@@H](C)O)[C@@H](C)CC)C(=O)N[C@@H](CCC(=O)O)C(=O)N[C@@H](CC(C)C)C(=O)N[C@@H](CCC(=O)O)C(=O)N[C@@H](CCCCN)C(=O)N[C@@H](CCCCNC(=O)COCCOCCNC(=O)COCCOCCNC(=O)CC[C@H](NC(=O)CCCCCCCCCCCCCCCCCCC(=O)O)C(=O)O)C(=O)N[C@@H](C)C(=O)N[C@@H](C)C(=O)N[C@@H](CCCCN)C(=O)N[C@@H](CCC(=O)O)C(=O)N[C@@H](Cc1ccccc1)C(=O)N[C@H](C(=O)N[C@@H](CC(N)=O)C(=O)N[C@@H](Cc1c[nH]c2ccccc12)C(=O)N[C@@H](CC(C)C)C(=O)N[C@@H](CC(C)C)C(=O)N[C@@H](C)C(=O)N[C@@H](CCC(N)=O)C(=O)NCC(=O)N1CCC[C@H]1C(=O)N[C@@H](CO)C(=O)N[C@@H](CO)C(=O)NCC(=O)N[C@@H](C)C(=O)N1CCC[C@H]1C(=O)N1CCC[C@H]1C(=O)N1CCC[C@H]1C(=O)N[C@@H](CO)C(N)=O)C(C)C` [Compound 11] (H-Y[Aib]EGTFISDYSIELEKK([AEEA-AEEA-γGlu-C20 diacid])AAKEFVNWLLAQGPSSGAPPPS-NH2), the EC50 at human GIP R was 9 pM; in assay [1], above 3000 pM; in assay [2] it was 8 pM.
On the same counts, the results for `CC[C@H](C)[C@H](NC(=O)[C@H](CCCCN)NC(=O)[C@H](CCC(=O)O)NC(=O)[C@H](CC(C)C)NC(=O)[C@H](CCC(=O)O)NC(=O)[C@@H](NC(=O)[C@H](CO)NC(=O)[C@H](Cc1ccc(O)cc1)NC(=O)[C@H](CC(=O)O)NC(=O)[C@H](CO)NC(=O)[C@@H](NC(=O)[C@H](Cc1ccccc1)NC(=O)[C@@H](NC(=O)CNC(=O)[C@H](CCC(=O)O)NC(=O)C(C)(C)NC(=O)[C@@H](N)Cc1ccc(O)cc1)[C@@H](C)O)[C@@H](C)CC)[C@@H](C)CC)C(=O)N[C@@H](C)C(=O)N[C@@H](CCC(N)=O)C(=O)N[C@@H](CCCNC(=N)N)C(=O)N[C@@H](C)C(=O)N[C@@H](Cc1ccccc1)C(=O)N[C@H](C(=O)N[C@@H](CCC(=O)O)C(=O)N[C@@H](Cc1c[nH]c2ccccc12)C(=O)N[C@@H](CC(C)C)C(=O)N[C@@H](CC(C)C)C(=O)N[C@@H](C)C(=O)N[C@@H](CCC(N)=O)C(=O)N[C@@H](CCCCNC(=O)COCCOCCNC(=O)COCCOCCNC(=O)CC[C@H](NC(=O)CCCCCCCCCCCCCCCCCCC(=O)O)C(=O)O)C(N)=O)C(C)C` [Compound 14] (H-Y[Aib]EGTFISDYSIELEKIAQRAFVEWLLAQK([AEEA-AEEA-γGlu-C20 diacid])-NH2) are 24 pM, above 10000 pM and 14 pM.
Turning to `CC[C@H](C)[C@H](NC(=O)[C@H](Cc1ccccc1)NC(=O)[C@H](C)NC(=O)[C@H](CCCNC(=N)N)NC(=O)[C@H](CCC(N)=O)NC(=O)[C@H](C)NC(=O)[C@H](CCCCNC(=O)COCCOCCNC(=O)COCCOCCNC(=O)CN1CCN(C(=O)CCCCCCCCCCCCCCCCCCC(=O)O)CC1)NC(=O)[C@H](CCCCN)NC(=O)[C@H](CC(=O)O)NC(=O)[C@H](CC(C)C)NC(=O)[C@H](CCC(=O)O)NC(=O)[C@@H](NC(=O)[C@H](CO)NC(=O)[C@H](Cc1ccc(O)cc1)NC(=O)[C@H](CC(=O)O)NC(=O)[C@H](CO)NC(=O)[C@@H](NC(=O)[C@H](Cc1ccccc1)NC(=O)[C@@H](NC(=O)CNC(=O)[C@H](CCC(=O)O)NC(=O)C(C)(C)NC(=O)[C@@H](N)Cc1ccc(O)cc1)[C@@H](C)O)[C@@H](C)CC)[C@@H](C)CC)C(=O)N[C@@H](CCC(=O)O)C(=O)N[C@@H](Cc1c[nH]c2ccccc12)C(=O)N[C@@H](CC(C)C)C(=O)N[C@@H](CC(C)C)C(=O)N[C@@H](C)C(=O)N[C@@H](CCC(N)=O)C(=O)NCC(=O)N1CCC[C@H]1C(=O)N[C@@H](CO)C(=O)N[C@@H](CO)C(=O)NCC(=O)N[C@@H](C)C(=O)N1CCC[C@H]1C(=O)N1CCC[C@H]1C(=O)N1CCC[C@H]1C(=O)N[C@@H](CO)C(N)=O` [Compound 19] (H-Y[Aib]EGTFISDYSIELDKK([AEEA-AEEA-X1])AQRAFIEWLLAQGPSSGAPPPS-NH2), the EC50 at human GIP R is 6 pM; in assay [1], above 3000 pM; in assay [2] it was 5 pM.
The corresponding values for `CC[C@H](C)[C@H](NC(=O)[C@H](CO)NC(=O)[C@H](Cc1ccc(O)cc1)NC(=O)[C@H](CC(=O)O)NC(=O)[C@H](CO)NC(=O)[C@@H](NC(=O)[C@H](Cc1ccccc1)NC(=O)[C@@H](NC(=O)CNC(=O)[C@H](CCC(=O)O)NC(=O)C(C)(C)NC(=O)[C@@H](N)Cc1ccc(O)cc1)[C@@H](C)O)[C@@H](C)CC)C(=O)N[C@@H](CCC(=O)O)C(=O)N[C@@H](CC(C)C)C(=O)N[C@@H](CC(=O)O)C(=O)N[C@@H](CCCCN)C(=O)N[C@@H](CCCCNC(=O)COCCOCCNC(=O)COCCOCCNC(=O)CN1CCN(C(=O)CCCCCCCCCCCCCCCCCCC(=O)O)CC1)C(=O)N[C@@H](C)C(=O)N[C@@H](CCC(N)=O)C(=O)N[C@@H](CCCNC(=N)N)C(=O)N[C@@H](C)C(=O)N[C@@H](Cc1ccccc1)C(=O)N[C@H](C(=O)N[C@@H](CCC(=O)O)C(=O)N[C@@H](Cc1c[nH]c2ccccc12)C(=O)N[C@@H](CC(C)C)C(=O)N[C@@H](CC(C)C)C(=O)N[C@@H](C)C(=O)N[C@@H](CCC(N)=O)C(=O)NCC(=O)N1CCC[C@H]1C(=O)N[C@@H](CO)C(=O)N[C@@H](CO)C(=O)NCC(=O)N[C@@H](C)C(=O)N1CCC[C@H]1C(=O)N1CCC[C@H]1C(=O)N1CCC[C@H]1C(=O)N[C@@H](CO)C(N)=O)C(C)C` [Compound 20] (H-Y[Aib]EGTFISDYSIELDKK([AEEA-AEEA-X1])AQRAFVEWLLAQGPSSGAPPPS-NH2) are 7 pM, above 3000 pM and 6 pM.

As a reminder, the EC50 is the concentration needed to bring the measured effect to its halfway point. High values mean lower potency in that assay, low ones higher potency in that assay.
